Results as given in patent publication US8992891B2, “Therapeutic approaches for treating CMT and related disorders” (Pharnext, priority 2007, dated 2015).

What was measured:
PMP22 mRNA = PMP22 mRNA level by quantitative RT-PCR after drug stimulation of rat Schwann cell primary culture; format: cell-based; set-up: key: +: significantly decreases PMP22 levels compared to control; details: rat primary Schwann cells, drug incubation 24 hrs
Procedure: After cells being platted in 12 well-dishes, the medium is replaced by a defined medium consisting in a mix of DMEM-F12 (Invitrogen #21331020) complemented by 1% of N2 supplement (Invitrogen #17502), 1% L-Glutamine (Invitrogen #25030024) 2.5% FBS (Sciencell #0025), 0.02 μg/ml of corticosterone (Sigma #C2505), 4 μM Forskolin and 50 μg/ml of gentamycin. Growth factors are not added to this medium, to promote SC differentiation
24 hours later, the medium is replaced by a defined medium (DMEM-F12) complemented with 1% Insulin-Transferrin-Selenium-X (ITS, Invitrogen #51300), 16 μg/ml of Putrescine (Sigma #P5780), 0.02 μg/ml of corticosterone and 50 μg/ml of gentamicin. At this step, neither progesterone nor forskolin are present in the medium.
One day later, Schwann cells are stimulated by combinations of drugs or drugs alone during 24 hrs (3 wells/condition). The preparation of each compound is performed just prior to its addition to the cell culture medium.
Drugs are added to a defined medium composed of DMEM-F12, with 1% Insulin-Transferrin-Selenium-X (ITS, Invitrogen #51300), 16 μg/ml of Putrescine, 0.02 μg/ml of corticosterone, 10 nM Progesterone and 50 μg/ml of gentamicin. The absence of Forskolin during drug stimulation avoids adenylate cyclase saturation.
Quantitative RT-PCR is used to compare the levels of PMP22 mRNA after drug stimulation, relative with housekeeping Ribosomal L13A mRNA in rat Schwann cell primary culture.
After rinsing with cold sterilized PBS, total RNAs from each cell sample are extracted and purified from SC using the Qiagen RNeasy micro kit (Qiagen #74004). Nucleic acids are quantified by Nanodrop spectrophotometer using 1 μl of RNA sample. The RNA integrity is determined through a BioAnalyzer (Agilent) apparatus.
RNAs are reverse-transcribed into cDNA according to standard protocol. cDNA templates for PCR amplification are synthesized from 200 ng of total RNA using SuperScript II reverse-transcriptase (Invitrogen #18064-014) for 60 min at 42° C. in the presence of oligo(dT), in a final volume of 20 μl.
cDNAs are subjected to PCR amplification using the ? LightCycler® 480 ? system (Roche Molecular Systems Inc.) Each cDNA are diluted five times before being used for PCR amplification. 2.5 μl of this cDNAs enters the PCR reaction solution (final volume of 10 μl). Preliminary experiments ensured that quantitation was done in the exponential phase of the amplification process for both sequences and that expression of the reference gene was uniform in the different culture conditions.
PCR reaction is performed by amplification of 500 nM of forward primer of rat PMP22 (NM_017037), 5-GGAAACGCGAATGAGGC-3 (SEQ ID NO: 1), and 500 nM of reverse primer 5-GTTCTGTTTGGTTTGGCTT-3 (SEQ ID NO: 2) (amplification of 148-bp). A 152-bp fragment of the RPL13A ribosomal (NM_173340) RNA is amplified in parallel in separate reactions for normalization of the results by using 500 nM of forward primer 5-CTGCCCTCAAGGTTGTG-3 (SEQ ID NO: 3), and 500 nM of reverse primer 5-[…]-3 (SEQ ID NO: 4).
We used FRET chemistry to perform RT-Q-PCR analysis. FRET probes are composed of 0.3 μM of Pmp22-FL-5-[…] (SEQ ID NO: 5) or Rpl13A-FL-5-TCGGGTGGAAGTACCAGCC (SEQ ID NO: 6), labelled at their 3′ end with a donor fluorophore dye (Fluorescein). 0.15 μM Red640 probes are defined as follows: Pmp22-red-5′-[…]- (SEQ ID NO: 7) or Rpl13A-red-5′-[…] (SEQ ID NO: 8), labelled at their 5′ end with an acceptor fluorophore dye (Rhodamine Red 640).
Each PCR reaction contained 2.5 μl cDNA template in a final volume of 10 μl of master mix kit (Roche #04-887301001).
The following PCR conditions are used: 10 sec at 95° C., 10 sec at 63° C. and 12 sec at 72° C. and 30 sec at 40° C. (Forty amplification cycles). The relative levels of PMP22 gene expression is measured by determining the ratio between the products generated from the target gene PMP22 and the endogenous internal standard RPL13A. […]

PMP22 protein = PMP22 protein expression analysis by flow cytometry (FACS) in Schwann cells; format: cell-based, rat; set-up: key to Protein (PMP22 expression decrease): +: significantly decreases PMP22 levels compared to control; details: rat primary Schwann cells, FACS, 24 hrs
Procedure: One day later, Schwann cells are stimulated by combinations of drugs or drugs alone during 24 hrs (3 wells/condition). The preparation of each compound is performed just prior to its addition to the cell culture medium. Drugs are added to a defined medium composed of DMEM-F12, with 1% Insulin-Transferrin-Selenium-X (ITS, Invitrogen #51300), 16 μg/ml of Putrescine, 0.02 μg/ml of corticosterone, 10 nM Progesterone and 50 μg/ml of gentamicin. The absence of Forskolin during drug stimulation avoids adenylate cyclase saturation. 8 hrs, 24 hrs and 48 hrs after drugs incubation, supernatants are recovered, centrifuged and frozen. SC are detached with trypsin-EDTA. As soon as the majority of cells are in suspension, the trypsin is neutralised using DMEM with 10% FCS. Supernatants with cells are recovered and centrifuged. The pellets of cells are transferred in micro tubes, washed in PBS once and fixed with a specific solution (AbCys #Reagent A BUF09B). 10 minutes later, cells are rinsed once with PBS and kept at 4° C. Five days after cell fixation, all cell preparations with different incubation times are labelled using the following protocol. […] Cells are then centrifuged at 7000 rpm for 5 minutes and cell pellets are rinsed once in PBS. A secondary antibody is added, coupled to Alexa Fluor 488 (goat anti-rabbit IgG, Molecular Probes #A11008, 1/100), for one hour at room temperature. Cells are then centrifuged at 7000 rpm for 5 minutes and cell pellets are rinsed once in PBS. The labelling is increased adding a tertiary antibody coupled to Alexa Fluor 488 (chicken anti-goat IgG, Molecular Probes #A21467, 1/100) for one hour incubation, at room temperature. Cells are then rinsed once in PBS. Control without any antibody (unlabelled cells) is performed to determine the level of autofluorescence and adapted the sensitivity of the photomultiplicators. Control with both secondary and tertiary antibodies but without primary antibody, is performed to assess non specific binding of antibodies. Data acquisition and analysis are performed with a FACS Array cytometer and FACS Array software (Becton Dickinson) on 5000 cells. Forward Scatter (FSC) correlated with cell volume (size) and Side Scatter (SSC) depending on inner complexity of cells (granularity) are analysed. For expression of PMP22, analysis is performed within the total cells and percent of positive cells is calculated. Positive cells are cells with fluorescence intensity higher than the control with secondary antibody. We tested the ability of some drugs to inhibit PMP22 protein expression (FACS analysis). […] The results of the action of some individual drugs on the protein level of PMP22 are also shown on table 1 above.

PMP22 = details: transgenic rodent models with over expression of PMP22; cited from earlier work

SMILES | mRNA (PMP22 expression decrease) (PMP22 mRNA) | Protein (PMP22 expression decrease) (PMP22 protein) | PMP22 expression in the transgenic animals (PMP22)
CC(C)OC(=O)C(C)(C)Oc1ccc(C(=O)c2ccc(Cl)cc2)cc1 [Fenofibrate] | + |  | 
Cc1cnc(NC(=O)C2=C(O)c3ccccc3S(=O)(=O)N2C)s1 [Meloxicam] | + | + | 
C[C@]12CC[C@@H]3c4ccc(O)cc4CC[C@H]3[C@@H]1CC[C@@H]2O [Estradiol-b, Estradiol] | + |  | 
CC(C(=O)O)c1ccc(-c2ccccc2)c(F)c1 (stereo not drawn) [Flurbiprofen] | + | + | 
O=C(CCCN1CCC(O)(c2ccc(Cl)cc2)CC1)c1ccc(F)cc1 [Haloperidol] | + |  | 
CN(C)c1ccc([C@H]2C[C@]3(C)[C@@H](CC[C@]3(O)CCCO)[C@@H]3CCC4=CC(=O)CCC4=C32)cc1 [onapristone] |  |  | decreased this expression
O=C(O)Cc1ccccc1Nc1c(Cl)cccc1Cl [Diclofenac] | + | + | 
CC#C[C@]1(O)CC[C@H]2[C@@H]3CCC4=CC(=O)CCC4=C3[C@@H](c3ccc(N(C)C)cc3)C[C@@]21C [Mifepristone] | + |  | 
COc1ccc2c(c1)c(CC(=O)O)c(C)n2C(=O)c1ccc(Cl)cc1 [Indomethacin] | + | + | 
CC(C(=O)O)c1cccc(C(=O)c2ccccc2)c1 (stereo not drawn) [Ketoprofen] | + | + | 
CC(C)(O)c1ccccc1CC[C@@H](SCC1(CC(=O)O)CC1)c1cccc(/C=C/c2ccc3ccc(Cl)cc3n2)c1 [Montelukast] | + |  | 
C[C@]12CC[C@H]3[C@@H](CC[C@@]45O[C@@H]4C(O)=C(C#N)C[C@]35C)[C@@H]1CC[C@@H]2O [Trilostane] | + |  | 
OC[C@@H](O)[C@@H](O)[C@H](O)[C@@H](O)CO [Sorbitol, D-Sorbitol] | + |  | 
CC(C)NCC(O)c1ccc(O)c(O)c1 (stereo not drawn) [Isoproterenol] | + |  | 
O=C1O[C@H]([C@@H](O)CO)C(O)=C1O [ascorbic acid] |  |  | decreased this expression
CCC(C)(C)C(=O)O[C@H]1C[C@@H](C)C=C2C=C[C@H](C)[C@H](CC[C@@H]3C[C@@H](O)CC(=O)O3)[C@H]21 [Simvastatin] | + |  | 
NCC(CC(=O)O)c1ccc(Cl)cc1 (stereo not drawn) [Baclofen] | + |  | 
O=C1CC[C@@]2(O)[C@H]3Cc4ccc(O)c5c4[C@@]2(CCN3CC2CC2)[C@H]1O5 [Naltrexone] | + |  | 
CCN(CC)C(=S)SSC(=S)N(CC)CC [Disulfiram] | + |  | 
